Tested on: 192522-019-R-J2-PDC complex tumor spheroid viability
Assay: Anticancer human tumor 192522-019-R-J2-PDC patient-derived colon adenocarcinoma cell line growth inhibition [POLQ]
Details: for IC50: curve of first compound; for viability, T/C: stronger effect = lower value
Procedure, shortened: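 Complex spheroid viability model combining PDC tumour cells with endothelial (HUVEC) and MSC stromal cells. Novobiocin, ART-558 or RP6685 were tested singly and in combination with standard and investigational anticancer drugs. Each was titrated in half-log steps from near clinical Cmax, or from 10 microM where Cmax was unknown.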

[1] = second compound 0.0316 µM, first compound 0.0316 µM
[2] = second compound 0.0316 µM, first compound 0.1 µM
[3] = second compound 0.0316 µM, first compound 0.316 µM
[4] = second compound 0.0316 µM, first compound 1 µM
[5] = second compound 0.0316 µM, first compound 3.16 µM
[6] = second compound 0.0316 µM, first compound 10 µM
[7] = second compound 0.1 µM, first compound 0.0316 µM
[8] = second compound 0.1 µM, first compound 0.1 µM
[9] = second compound 0.1 µM, first compound 0.316 µM
[10] = second compound 0.1 µM, first compound 1 µM
[11] = second compound 0.1 µM, first compound 3.16 µM
[12] = second compound 0.1 µM, first compound 10 µM
[13] = second compound 0.316 µM, first compound 0.0316 µM
[14] = second compound 0.316 µM, first compound 0.1 µM
[15] = second compound 0.316 µM, first compound 0.316 µM
[16] = second compound 0.316 µM, first compound 1 µM
[17] = second compound 0.316 µM, first compound 3.16 µM
[18] = second compound 0.316 µM, first compound 10 µM
[19] = second compound 1 µM, first compound 0.0316 µM
[20] = second compound 1 µM, first compound 0.1 µM
[21] = second compound 1 µM, first compound 0.316 µM
[22] = second compound 1 µM, first compound 1 µM
[23] = second compound 1 µM, first compound 3.16 µM
[24] = second compound 1 µM, first compound 10 µM
[25] = second compound 3.16 µM, first compound 0.0316 µM
[26] = second compound 3.16 µM, first compound 0.1 µM
[27] = second compound 3.16 µM, first compound 0.316 µM
[28] = second compound 3.16 µM, first compound 1 µM
[29] = second compound 3.16 µM, first compound 3.16 µM
[30] = second compound 3.16 µM, first compound 10 µM
[31] = second compound 10 µM, first compound 0.0316 µM
[32] = second compound 10 µM, first compound 0.1 µM
[33] = second compound 10 µM, first compound 0.316 µM
[34] = second compound 10 µM, first compound 1 µM
[35] = second compound 10 µM, first compound 3.16 µM
[36] = second compound 10 µM, first compound 10 µM
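Note: spheroids exposed to drugs for seven days before reading.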
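Throughout, for viability, T/C: 100% = DMSO vehicle control viability in luminescence.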

With `CCc1cc2c(N3CCc4c(cc(Cn5ccnc5)cc4-c4cn(C)nc4C(F)(F)F)C3=O)cc(C)nc2c(OC)n1` + COC1C(OC(N)=O)C(O)C(Oc2ccc3c(O)c(NC(=O)c4ccc(O)c(CC=C(C)C)c4)c(=O)oc3c2C)OC1(C)C the IC50 (second compound 0.0316 µM) was > 10 µM, the IC50 (second compound 0.1 µM) was > 10 µM and the IC50 (second compound 0.316 µM) was > 10 µM. For the same compound, the IC50 (second compound 1 µM) was > 10 µM, the IC50 (second compound 3.16 µM) was > 10 µM and the IC50 (second compound 10 µM) was > 10 µM. For the same compound, the viability, T/C [1] was 95.6%, the viability, T/C [2] was 90.6% and the viability, T/C [3] was 90.5%. For the same compound, the viability, T/C [4] was 82.8%, the viability, T/C [5] was 79.2% and the viability, T/C [6] was 60.7%. The viability, T/C [7] was 94.2%, the viability, T/C [8] was 94.3% and the viability, T/C [9] was 81.5%. For the same compound, the viability, T/C [10] was 82.4%, the viability, T/C [11] was 72.3% and the viability, T/C [12] was 67.4%. The viability, T/C [13] was 101%, the viability, T/C [14] was 96.7% and the viability, T/C [15] was 96.1%. For the same compound, the viability, T/C [16] was 81.6%, the viability, T/C [17] was 82.6% and the viability, T/C [18] was 69.7%. The viability, T/C [19] was 99%, the viability, T/C [20] was 96.8% and the viability, T/C [21] was 85.1%. The viability, T/C [22] was 84.3%, the viability, T/C [23] was 68.5% and the viability, T/C [24] was 72.4%. The viability, T/C [25] was 95.6%, the viability, T/C [26] was 98.8% and the viability, T/C [27] was 87.1%. The viability, T/C [28] was 83.9%, the viability, T/C [29] was 74.6% and the viability, T/C [30] was 66.2%. The viability, T/C [31] was 102%, the viability, T/C [32] was 91.4% and the viability, T/C [33] was 87.5%. The viability, T/C [34] was 80.6%, the viability, T/C [35] was 88.9% and the viability, T/C [36] was 73.4%.

With `CCc1cc2c(N3CCc4c(cc(Cn5ccnc5)cc4-c4cn(C)nc4C(F)(F)F)C3=O)ccnc2c(OC)n1` + COC1C(OC(N)=O)C(O)C(Oc2ccc3c(O)c(NC(=O)c4ccc(O)c(CC=C(C)C)c4)c(=O)oc3c2C)OC1(C)C the IC50 (second compound 0.0316 µM) was > 10 µM, the IC50 (second compound 0.1 µM) was > 10 µM and the IC50 (second compound 0.316 µM) was > 10 µM. The IC50 (second compound 1 µM) was > 10 µM, the IC50 (second compound 3.16 µM) was > 10 µM and the IC50 (second compound 10 µM) was > 10 µM. It also gave a viability, T/C [1] of 98.8%, a viability, T/C [2] of 89.9% and a viability, T/C [3] of 86.5%. For the same compound, the viability, T/C [4] was 89.3%, the viability, T/C [5] was 88.8% and the viability, T/C [6] was 63%. It also gave a viability, T/C [7] of 101%, a viability, T/C [8] of 88.9% and a viability, T/C [9] of 93.7%. The viability, T/C [10] was 84.7%, the viability, T/C [11] was 78.5% and the viability, T/C [12] was 67.7%. It also gave a viability, T/C [13] of 101%, a viability, T/C [14] of 93.7% and a viability, T/C [15] of 89.9%. For the same compound, the viability, T/C [16] was 90.9%, the viability, T/C [17] was 68.3% and the viability, T/C [18] was 71.2%. For the same compound, the viability, T/C [19] was 101%, the viability, T/C [20] was 94% and the viability, T/C [21] was 85.4%. It also gave a viability, T/C [22] of 96.6%, a viability, T/C [23] of 76.7% and a viability, T/C [24] of 67.8%. It also gave a viability, T/C [25] of 106%, a viability, T/C [26] of 102% and a viability, T/C [27] of 92%. It also gave a viability, T/C [28] of 91.9%, a viability, T/C [29] of 90.5% and a viability, T/C [30] of 68.3%. It also gave a viability, T/C [31] of 97.5%, a viability, T/C [32] of 88.7% and a viability, T/C [33] of 95.6%. It also gave a viability, T/C [34] of 92.1%, a viability, T/C [35] of 87.3% and a viability, T/C [36] of 74.7%.

`COc1cc2cc(C(=O)CCC(=O)O)sc2cc1OC` + COC1C(OC(N)=O)C(O)C(Oc2ccc3c(O)c(NC(=O)c4ccc(O)c(CC=C(C)C)c4)c(=O)oc3c2C)OC1(C)C was tested, and the IC50 (second compound 0.0316 µM) was > 10 µM, the IC50 (second compound 0.1 µM) was > 10 µM and the IC50 (second compound 0.316 µM) was > 10 µM. The IC50 (second compound 1 µM) was > 10 µM, the IC50 (second compound 3.16 µM) was > 10 µM and the IC50 (second compound 10 µM) was > 10 µM. The viability, T/C [1] was 101%, the viability, T/C [2] was 94.3% and the viability, T/C [3] was 97.7%. It also gave a viability, T/C [4] of 101%, a viability, T/C [5] of 102% and a viability, T/C [6] of 91.9%. The viability, T/C [7] was 110%, the viability, T/C [8] was 98% and the viability, T/C [9] was 96.9%. It also gave a viability, T/C [10] of 97%, a viability, T/C [11] of 94.9% and a viability, T/C [12] of 106%. The viability, T/C [13] was 105%, the viability, T/C [14] was 88.7% and the viability, T/C [15] was 98.6%. The viability, T/C [16] was 105%, the viability, T/C [17] was 96.9% and the viability, T/C [18] was 105%. The viability, T/C [19] was 105%, the viability, T/C [20] was 97.7% and the viability, T/C [21] was 104%. The viability, T/C [22] was 111%, the viability, T/C [23] was 105% and the viability, T/C [24] was 101%. It also gave a viability, T/C [25] of 103%, a viability, T/C [26] of 103% and a viability, T/C [27] of 107%. For the same compound, the viability, T/C [28] was 105%, the viability, T/C [29] was 114% and the viability, T/C [30] was 96.9%. It also gave a viability, T/C [31] of 102%, a viability, T/C [32] of 88.7% and a viability, T/C [33] of 109%. The viability, T/C [34] was 109%, the viability, T/C [35] was 112% and the viability, T/C [36] was 101%.

In the case of `O=C(Nc1ccc(O)c(NS(=O)(=O)c2ccc(F)cc2)c1)c1ccc(-c2ccccc2)cc1` + COC1C(OC(N)=O)C(O)C(Oc2ccc3c(O)c(NC(=O)c4ccc(O)c(CC=C(C)C)c4)c(=O)oc3c2C)OC1(C)C, the IC50 (second compound 0.0316 µM) is reported as > 10 µM, the IC50 (second compound 0.1 µM) is reported as > 10 µM and the IC50 (second compound 0.316 µM) is reported as > 10 µM. The IC50 (second compound 1 µM) was > 10 µM, the IC50 (second compound 3.16 µM) was > 10 µM and the IC50 (second compound 10 µM) was > 10 µM. The viability, T/C [1] was 109%, the viability, T/C [2] was 97.3% and the viability, T/C [3] was 95.8%. For the same compound, the viability, T/C [4] was 92.1%, the viability, T/C [5] was 93% and the viability, T/C [6] was 101%. It also gave a viability, T/C [7] of 105%, a viability, T/C [8] of 88.9% and a viability, T/C [9] of 97.5%. The viability, T/C [10] was 102%, the viability, T/C [11] was 95.5% and the viability, T/C [12] was 104%. For the same compound, the viability, T/C [13] was 103%, the viability, T/C [14] was 89.6% and the viability, T/C [15] was 98.3%. The viability, T/C [16] was 93.5%, the viability, T/C [17] was 94.7% and the viability, T/C [18] was 96.6%. For the same compound, the viability, T/C [19] was 95.7%, the viability, T/C [20] was 93.3% and the viability, T/C [21] was 111%. It also gave a viability, T/C [22] of 105%, a viability, T/C [23] of 95.5% and a viability, T/C [24] of 94.3%. The viability, T/C [25] was 104%, the viability, T/C [26] was 103% and the viability, T/C [27] was 95.7%. For the same compound, the viability, T/C [28] was 105%, the viability, T/C [29] was 108% and the viability, T/C [30] was 102%. For the same compound, the viability, T/C [31] was 95.9%, the viability, T/C [32] was 98.2% and the viability, T/C [33] was 120%. For the same compound, the viability, T/C [34] was 97.6%, the viability, T/C [35] was 113% and the viability, T/C [36] was 105%.
